Consider 13 molecules from PMC7894522, “Structure Based Design of Bicyclic Peptide Inhibitors of RbAp48” (Angewandte Chemie (International Ed. in English), 2020).

Read-outs that look alike come from different tables or passages of the source. Starred links: 1 amine or outer side, 2 acyl side, 3 side chain; linkers in the order of their positions; H or OH if unused. Positions of bridges follow the written chain, without caps; N, C: chain ends. Residues, ends and D or L forms follow the SMILES beside them. TBMB = c1c(C[*:1])cc(C[*:3])cc1C[*:2]; X2 = c1ccc2c(C[*:2])ccc(C[*:1])c2c1

For the test, the target named is RbAp48 (Homo sapiens, UniProt Q09028). Description: Competitive fluorescence polarization (FP) assay using complex of peptide 1 and RbAp48. Further details: Full length RbAp48 was cloned; His tag followed by 3C cleavage site (N, cleaved yes); made in house; host or cells: Sf9 insect cells. Conditions: for IC50: competitive FP, RbAp48 15 nM, read-out: IC50. Format: binding. Here is the method: The binding affinity of our library of synthetic cyclic peptides was evaluated by a competitive fluorescence polarization (FP) assay using a complex formed by peptide 1 and RbAp48. To reduce the length of the peptide it was truncated to the amino acids which seemed most critical according to the crystal structure (residues 676–689, pdb:4pbz). […] We chose to use a cyclization approach to regain affinity, that is, not to induce more interactions but through minimizing the entropic penalty upon binding by reducing the flexibility of the peptide. To this end two amino acids were chosen which are facing one another in the structure (see Figure 1 B/D/E). Two peptides were designed where glutamic acid was used in position 676 (4) or position 680 (5) and lysine in position 688 for both peptides (see Table 1). The macrocycles were formed by connecting the side chains via an amide bond (see Figure 1 D/E). Peptide synthesis was performed on Rink‐amide resin using the Fmoc‐strategy incorporating Fmoc‐L‐Glu(All)‐OH and Fmoc‐L‐Lys(Alloc)‐OH at the sites for cyclization. After completion of the linear synthesis the allyl protecting groups were removed using Pd^0 catalysis and the amide link was formed by using PyBOP. […] Therefore, a range of peptides was synthesized which were cyclized using the same amino acid positions but via a cysteine alkylation strategy (see Figure 1 D/E and Table 1). In this method the residues used for cyclization are replaced with cysteine and benzylic dibromides act as crosslinkers on the unprotected peptides. ^[11] Previous research has shown that such linkers can effectively stabilize cyclic peptides and yield high affinity ligands for protein–protein interaction inhibition. ^[12] Such a linker introduces a xylene group in close vicinity of the hydrophobic patch potentially reconstituting the lost key hydrophobic interactions. To explore a variety of macrocycle conformations we used either ortho‐, meta‐ or para‐substituted dibromides to exchange the linker in both 4 and 5 (see Figure 1 D/E and Table 1). ^[13]
Protein expression and purification
RbAp48 was expressed and purified by the Dortmund Protein Facility. Full length RbAp48 was cloned into a pOPIN vector ligating it to an N-terminal His tag followed by a 3C cleavage site. The protein was expressed from Sf9 cells for 48 h. Cells were harvested and lysed and the protein was purified by loading onto a HisTrap FF crude 5 ml column followed by on-column cleavage using Precission protease. The cleaved protein was then further purified using a HiLoad 26/60 Superdex 200 column.
Fluorescence polarization assay
Fluorescence polarization assays were performed in 384 wells plates in 80 µl volumes. The assay buffer contains 20 mM Tris-HCl, 150 mM NaCl, 0.01% Tween-20 at pH 7.5. The concentration of the fluorescently labelled peptides was 1 nM plates were incubated at room temperature for 30 min before they were read on a Tecan Spark plate reader (λex = 485 nm, λem = 535 nm).
For competitive assays the same conditions were used with a tracer concentration of 1 nM was used and a protein concentration of 15 nM .

Setting [1] is: Supplemental Table 2, tracer 1 nM, pH 7.5, 30 min room temperature.
[2] abbreviates: Table 1, tracer peptide 1 1 nM, 20 mM Tris-HCl, 150 mM NaCl, 0.01% Tween-20, pH 7.5, 30 min room temperature, lower limit set by 15 nM protein.

RbAp48, sequence (Q09028 whole entry, the tested form may be a part): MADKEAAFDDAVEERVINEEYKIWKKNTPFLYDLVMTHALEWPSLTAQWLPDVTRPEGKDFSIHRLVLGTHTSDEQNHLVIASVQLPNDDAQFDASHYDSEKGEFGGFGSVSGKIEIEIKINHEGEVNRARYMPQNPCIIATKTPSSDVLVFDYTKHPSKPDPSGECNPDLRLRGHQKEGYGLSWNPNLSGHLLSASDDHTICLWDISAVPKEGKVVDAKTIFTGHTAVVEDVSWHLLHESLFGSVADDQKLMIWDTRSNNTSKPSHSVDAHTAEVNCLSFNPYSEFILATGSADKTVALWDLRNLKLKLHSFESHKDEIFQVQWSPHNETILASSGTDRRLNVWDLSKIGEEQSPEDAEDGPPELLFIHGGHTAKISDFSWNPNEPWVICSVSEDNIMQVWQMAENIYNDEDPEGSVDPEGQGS

A word on the IC50: it is the concentration that inhibits the measured activity by half. Regarding `CC(=O)N[C@H]1CSCc2ccc(c3ccccc23)CSC[C@@H](C(=O)N[C@@H](C)C(N)=O)NC(=O)[C@@H]2CCCN2C(=O)[C@H](CCCCN)NC(=O)[C@H](Cc2ccc(O)cc2)NC(=O)[C@@H]2CCCN2C(=O)[C@H](CCCNC(=N)N)NC(=O)[C@H](CCCNC(=N)N)NC(=O)[C@H](C)NC(=O)[C@H](C)NC(=O)[C@H](CCCNC(=N)N)NC(=O)[C@H](CCCCN)NC(=O)[C@H]([C@@H](C)O)NC1=O` [Peptide 32] (Ac-CTKRAARRPYKPCA-NH2; linker 1-13 via X2 (inferred)), the IC50 under setting [1] is 43.7 ± 6.4 nM.
Same read-out and setting: the same measure for `CC(=O)N[C@H]1CSCc2cc3cc(c2)CSC[C@@H](C(=O)N[C@@H](CC(N)=O)C(N)=O)NC(=O)[C@@H]2CCCN2C(=O)[C@H](CC(C)C)NC(=O)[C@H](Cc2ccc(O)cc2)NC(=O)[C@@H]2CCCN2C(=O)[C@H](Cc2c[nH]cn2)NC(=O)[C@H](CCCNC(=N)N)NC(=O)[C@H](C)NC(=O)[C@H](CSC3)NC(=O)[C@H](Cc2c[nH]cn2)NC(=O)[C@H](Cc2c[nH]c3ccccc23)NC(=O)[C@@H]2CCCN2C(=O)[C@H](CCCNC(=N)N)NC1=O` [Peptide 34] (Ac-CRPWHCARHPYLPCN-NH2; linker 1-6-14 via TBMB): 153 ± 2.4 nM; for `CC(=O)N[C@H]1CSCc2cc3cc(c2)CSC[C@@H](C(=O)N[C@@H](CC(N)=O)C(N)=O)NC(=O)[C@@H]2CCCN2C(=O)[C@H](CC(C)C)NC(=O)[C@H](Cc2ccc(O)cc2)NC(=O)[C@@H]2CCCN2C(=O)[C@H](Cc2c[nH]cn2)NC(=O)[C@H](CCCNC(=N)N)NC(=O)[C@H](C)NC(=O)[C@H](CSC3)NC(=O)[C@H](Cc2c[nH]cn2)NC(=O)[C@H](Cc2c[nH]c3ccccc23)NC(=O)[C@@H]2CCCN2C1=O` [Peptide 35] (Ac-CPWHCARHPYLPCN-NH2; linker 1-5-13 via TBMB): 7480 ± 3020 nM.
Take `CC(=O)N[C@H]1CSCc2cc3cc(c2)CSC[C@@H](C(=O)N[C@@H](CCCCN)C(N)=O)NC(=O)[C@H](CCCNC(=N)N)NC(=O)[C@@H]2CCCN2C(=O)[C@H](C)NC(=O)[C@H]([C@@H](C)O)NC(=O)[C@H](CCCCN)NC(=O)[C@H](Cc2ccc(O)cc2)NC(=O)[C@H](CCCNC(=N)N)NC(=O)[C@H](CSC3)NC(=O)[C@H](C)NC(=O)[C@H](CCCNC(=N)N)NC(=O)[C@@H]2CCCN2C1=O` [Peptide 36] (Ac-CPRACRYKTAPRCK-NH2; linker 1-5-13 via TBMB): the IC50 under setting [2] was more than 10000 nM. Further, the “FP activity in words” value (competitive FP assay) was “completely lose affinity”.
Consider `CC(=O)N[C@H]1CSCc2cc3cc(c2)CSC[C@@H](C(=O)N[C@@H](C)C(N)=O)NC(=O)[C@@H]2CCCN2C(=O)[C@H](CCCCN)NC(=O)[C@H](Cc2ccc(O)cc2)NC(=O)[C@@H]2CCCN2C(=O)[C@H](CCCNC(=N)N)NC(=O)[C@H](CCCNC(=N)N)NC(=O)[C@H](C)NC(=O)[C@H](CSC3)NC(=O)[C@H](CCCNC(=N)N)NC(=O)[C@H](CCCCN)NC(=O)[C@H](C)NC1=O` [Peptide 37] (Ac-CAKRCARRPYKPCA-NH2; linker 1-5-13 via TBMB), for which the IC50 under setting [2] is 12.4 ± 3.2 nM.
With `CC(=O)N[C@H]1CSCc2cc3cc(c2)CSC[C@@H](C(=O)N[C@@H](C)C(N)=O)NC(=O)[C@@H]2CCCN2C(=O)[C@H](CCCCN)NC(=O)[C@H](Cc2ccc(O)cc2)NC(=O)[C@@H]2CCCN2C(=O)[C@H](CCCNC(=N)N)NC(=O)[C@H](CCCNC(=N)N)NC(=O)[C@H](C)NC(=O)[C@H](CSC3)NC(=O)[C@H](CCCNC(=N)N)NC(=O)[C@H](C)NC(=O)[C@H]([C@@H](C)O)NC1=O` [Peptide 38] (Ac-CTARCARRPYKPCA-NH2; linker 1-5-13 via TBMB), under setting [2], the IC50 was found to be 263 ± 42.7 nM.
For the molecule `CC(=O)N[C@H]1CSCc2cc3cc(c2)CSC[C@@H](C(=O)N[C@@H](C)C(N)=O)NC(=O)[C@@H]2CCCN2C(=O)[C@H](CCCCN)NC(=O)[C@H](Cc2ccc(O)cc2)NC(=O)[C@@H]2CCCN2C(=O)[C@H](CCCNC(=N)N)NC(=O)[C@H](CCCNC(=N)N)NC(=O)[C@H](C)NC(=O)[C@H](CSC3)NC(=O)[C@H](C)NC(=O)[C@H](CCCCN)NC(=O)[C@H]([C@@H](C)O)NC1=O` [Peptide 39] (Ac-CTKACARRPYKPCA-NH2; linker 1-5-13 via TBMB), the IC50 under setting [2] worked out at 77.4 ± 9.6 nM.
`CC(=O)N[C@H]1CSCc2cc3cc(c2)CSC[C@@H](C(=O)N[C@@H](C)C(N)=O)NC(=O)[C@@H]2CCCN2C(=O)[C@H](CCCCN)NC(=O)[C@H](Cc2ccc(O)cc2)NC(=O)[C@@H]2CCCN2C(=O)[C@H](C)NC(=O)[C@H](CCCNC(=N)N)NC(=O)[C@H](C)NC(=O)[C@H](CSC3)NC(=O)[C@H](CCCNC(=N)N)NC(=O)[C@H](CCCCN)NC(=O)[C@H]([C@@H](C)O)NC1=O` [Peptide 41] (Ac-CTKRCARAPYKPCA-NH2; linker 1-5-13 via TBMB): the IC50 under setting [2] turned out to be 24.6 ± 3.9 nM.
As to `CC(=O)N[C@H]1CSCc2cc3cc(c2)CSC[C@@H](C(=O)N[C@@H](C)C(N)=O)NC(=O)[C@@H]2CCCN2C(=O)[C@H](CCCCN)NC(=O)[C@H](Cc2ccc(O)cc2)NC(=O)[C@H](C)NC(=O)[C@H](CCCNC(=N)N)NC(=O)[C@H](CCCNC(=N)N)NC(=O)[C@H](C)NC(=O)[C@H](CSC3)NC(=O)[C@H](CCCNC(=N)N)NC(=O)[C@H](CCCCN)NC(=O)[C@H]([C@@H](C)O)NC1=O` [Peptide 42] (Ac-CTKRCARRAYKPCA-NH2; linker 1-5-13 via TBMB), under setting [2], the IC50 amounted to 131 ± 15.3 nM.
As to `CC(=O)N[C@H]1CSCc2cc3cc(c2)CSC[C@@H](C(=O)N[C@@H](C)C(N)=O)NC(=O)[C@@H]2CCCN2C(=O)[C@H](CCCCN)NC(=O)[C@H](C)NC(=O)[C@@H]2CCCN2C(=O)[C@H](CCCNC(=N)N)NC(=O)[C@H](CCCNC(=N)N)NC(=O)[C@H](C)NC(=O)[C@H](CSC3)NC(=O)[C@H](CCCNC(=N)N)NC(=O)[C@H](CCCCN)NC(=O)[C@H]([C@@H](C)O)NC1=O` [Peptide 43] (Ac-CTKRCARRPAKPCA-NH2; linker 1-5-13 via TBMB), under setting [2], the IC50 is 38.3 ± 1.9 nM.
Turning to `CC(=O)N[C@H]1CSCc2cc3cc(c2)CSC[C@@H](C(=O)N[C@@H](C)C(N)=O)NC(=O)[C@@H]2CCCN2C(=O)[C@H](C)NC(=O)[C@H](Cc2ccc(O)cc2)NC(=O)[C@@H]2CCCN2C(=O)[C@H](CCCNC(=N)N)NC(=O)[C@H](CCCNC(=N)N)NC(=O)[C@H](C)NC(=O)[C@H](CSC3)NC(=O)[C@H](CCCNC(=N)N)NC(=O)[C@H](CCCCN)NC(=O)[C@H]([C@@H](C)O)NC1=O` [Peptide 44] (Ac-CTKRCARRPYAPCA-NH2; linker 1-5-13 via TBMB), the IC50 under setting [2] was 19.8 ± 3.6 nM.
The same measure, in the same setting: the same measure for `CC(=O)N[C@H]1CSCc2cc3cc(c2)CSC[C@H](NC(=O)[C@H](CCCNC(=N)N)NC(=O)[C@H](CCCCN)NC(=O)[C@H]([C@@H](C)O)NC1=O)C(=O)N[C@@H](C)C(=O)N[C@@H](CCCNC(=N)N)C(=O)N[C@@H](CCCNC(=N)N)C(=O)N1CCC[C@H]1C(=O)N[C@@H](Cc1ccc(O)cc1)C(=O)N[C@@H](CCCCN)C(=O)N[C@@H](C)C(=O)N[C@H](C(=O)N[C@@H](C)C(N)=O)CSC3` [Peptide 45] (Ac-CTKRCARRPYKACA-NH2; linker 1-5-13 via TBMB): 15.6 ± 2.2 nM; for `CC(=O)N[C@H]1CSCc2cc3cc(c2)CSC[C@H](NC(=O)[C@H](CCCNC(=N)N)NC(=O)[C@H](CCCCN)NC(=O)[C@H]([C@@H](C)O)NC1=O)C(=O)N[C@@H](C)C(=O)N[C@@H](CCCNC(=N)N)C(=O)N[C@@H](CCCNC(=N)N)C(=O)N1CCC[C@H]1C(=O)N[C@@H](Cc1ccc(O)cc1)C(=O)N[C@@H](CCCCN)C(=O)N1CCC[C@H]1C(=O)N[C@H](C(N)=O)CSC3` [Peptide 46] (Ac-CTKRCARRPYKPC-NH2; linker 1-5-13 via TBMB): 20.5 ± 1.4 nM.
